ChEMBL document CHEMBL4265942, “Four new antitumor metabolites isolated from a mutant 3-f-31 strain derived from Penicillium purpurogenum G59” (Eur J Med Chem, 2018)

What was measured:
LS180 = assay: Antiproliferative activity against human LS180 cells assessed as inhibition of cell growth after 72 hrs by sulforhodamine B assay; type: functional, cell-based; settings: LS180, 72 h
A549 = assay: Antiproliferative activity against human A549 cells assessed as inhibition of cell growth after 72 hrs by sulforhodamine B assay; type: functional, cell-based; settings: A549, 72 h
HCT-116 [1] = assay: Down regulation of ERK1/2 expression in human HCT116 cells after 48 hrs by Western blot analysis; type: functional, cell-based
HCT-116 [2] = assay: Down regulation of survivin expression in human HCT116 cells after 48 hrs by Western blot analysis; type: functional, cell-based
PC-3 = assay: Antiproliferative activity against human PC3 cells assessed as inhibition of cell growth after 72 hrs by sulforhodamine B assay; type: functional, cell-based; settings: PC-3, 72 h
HCT-116 [3] = assay: Down regulation of AKT expression in human HCT116 cells after 48 hrs by Western blot analysis; type: functional, cell-based
HCT-116 [4] = assay: Down regulation of HSP90 expression in human HCT116 cells after 48 hrs by Western blot analysis; type: functional, cell-based
HCT-116 [5] = assay: Antiproliferative activity against human HCT116 cells assessed as inhibition of cell growth after 72 hrs by sulforhodamine B assay; type: functional, cell-based; settings: HCT-116, 72 h
SW480 = assay: Antiproliferative activity against human SW480 cells assessed as inhibition of cell growth after 72 hrs by sulforhodamine B assay; type: functional, cell-based; settings: SW480, 72 h
HCT-116 [6] = assay: Down regulation of Raf1 expression in human HCT116 cells after 48 hrs by Western blot analysis; type: functional, cell-based
Mus musculus [7] = assay: Toxicity in BALB/c nu/nu mouse xenografted with human HCT116 cells assessed as spleen index at 10 mg/kg administered peritoneally once daily for 14 days measured 24 hrs post last dose (reference value: 0.41 +/- 0.08%); type: organism-based; settings: in vivo, ip
BXPC-3 = assay: Antiproliferative activity against human BxPC3 cells assessed as inhibition of cell growth after 72 hrs by sulforhodamine B assay; type: functional, cell-based; settings: BXPC-3, 72 h
Mus musculus [8] = assay: Toxicity in BALB/c nu/nu mouse xenografted with human HCT116 cells assessed as spleen index at 20 mg/kg administered peritoneally once daily for 14 days measured 24 hrs post last dose (reference value: 0.41 +/- 0.08%); type: organism-based; settings: in vivo, ip
HCT-116 [9] = assay: Down regulation of phosphorylated STAT3 expression in human HCT116 cells after 48 hrs by Western blot analysis; type: functional, cell-based
NCI-H1975 = assay: Antiproliferative activity against human NCI-H1975 cells assessed as inhibition of cell growth after 72 hrs by sulforhodamine B assay; type: functional, cell-based; settings: NCI-H1975, 72 h
HCT-116 [10] = assay: Antitumor activity against human HCT116 cells xenografted in BALB/c nu/nu mouse assessed as tumor growth inhibition at 20 mg/kg administered peritoneally once daily for 14 days measured 24 hrs post last dose relative to control; type: functional; settings: read-out: TGI
HeLa = assay: Antiproliferative activity against human HeLa cells assessed as inhibition of cell growth after 72 hrs by sulforhodamine B assay; type: functional, cell-based
MCF7 = assay: Antiproliferative activity against human MCF7 cells assessed as inhibition of cell growth after 72 hrs by sulforhodamine B assay; type: functional, cell-based; settings: MCF7, 72 h
PANC-1 = assay: Antiproliferative activity against human PANC1 cells assessed as inhibition of cell growth after 72 hrs by sulforhodamine B assay; type: functional, cell-based; settings: PANC-1, 72 h
HL-60 = assay: Antiproliferative activity against human HL60 cells assessed as inhibition of cell growth after 72 hrs by MTT assay; type: functional, cell-based; settings: HL-60, 72 h
HT-29 = assay: Antiproliferative activity against human HT-29 cells assessed as inhibition of cell growth after 72 hrs by sulforhodamine B assay; type: functional, cell-based; settings: HT-29, 72 h
HCT-116 [11] = assay: Antitumor activity against human HCT116 cells xenografted in BALB/c nu/nu mouse assessed as tumor growth inhibition at 10 mg/kg administered peritoneally once daily for 14 days measured 24 hrs post last dose relative to control; type: functional; settings: read-out: TGI
HCT-116 [12] = assay: Antitumor activity against human HCT116 cells xenografted in BALB/c nu/nu mouse assessed as tumor growth inhibition at 5 mg/kg administered peritoneally once daily for 14 days measured 24 hrs post last dose relative to control; type: functional; settings: read-out: TGI
Mus musculus [13] = assay: Toxicity in BALB/c nu/nu mouse xenografted with human HCT116 cells assessed as spleen index at 5 mg/kg administered peritoneally once daily for 14 days measured 24 hrs post last dose (reference value: 0.41 +/- 0.08%); type: organism-based; settings: in vivo, ip
L929 = assay: Cytotoxicity against mouse L929 cells assessed as inhibition of cell growth after 72 hrs by MTT assay; type: cell-based; settings: L929, 72 h
HepG2 = assay: Antiproliferative activity against human HepG2 cells assessed as inhibition of cell growth after 72 hrs by sulforhodamine B assay; type: functional, cell-based; settings: HepG2, 72 h
HCT-116 [14] = assay: Down regulation of STAT3 expression in human HCT116 cells after 48 hrs by Western blot analysis; type: functional, cell-based
K562 = assay: Antiproliferative activity against human K562 cells assessed as inhibition of cell growth after 72 hrs by MTT assay; type: functional, cell-based; settings: K562, 72 h

SMILES: CCCCCC[C@@H](C)C[C@@H](C)/C=C/C(=O)N[C@H]1C[C@@]2(O[C@H]1O)[C@@H]1O[C@@H]1[C@](O)(CC(C)=O)[C@@H]1O[C@@H]12
- IC50 (LS180): 17.4 µM
- IC50 (A549): 10.9 µM
- Activity (HCT-116 [1]): Dose-dependent effect
- Activity (HCT-116 [2]): Dose-dependent effect
- IC50 (PC-3): 8.7 µM
- Activity (HCT-116 [3]): Dose-dependent effect
- Activity (HCT-116 [4]): Dose-dependent effect
- IC50 (HCT-116 [5]): 1.91 µM
- IC50 (SW480): 4.64 µM
- Activity (HCT-116 [6]): Dose-dependent effect
- Activity_index (Mus musculus [7]): 0.37
- IC50 (BXPC-3): 5.96 µM
- Activity_index (Mus musculus [8]): 0.48
- Activity (HCT-116 [9]): Dose-dependent effect
- IC50 (NCI-H1975): 3.75 µM
- inhibition in vivo at 20 mg/kg (HCT-116 [10]): 37.9%
- IC50 (HeLa): 5.09 µM
- IC50 (MCF7): 3.73 µM
- IC50 (PANC-1): 4.04 µM
- IC50 (HL-60): 4.55 µM
- IC50 (HT-29): 8.4 µM
- inhibition in vivo at 10 mg/kg (HCT-116 [11]): 37.8%
- inhibition in vivo at 5 mg/kg (HCT-116 [12]): 51.6%
- Activity_index (Mus musculus [13]): 0.95
- IC50 (L929): 3.8 µM
- IC50 (HepG2): 5.21 µM
- Activity (HCT-116 [14]): Dose-dependent effect
- IC50 (K562): 4.2 µM
